The values below come from publication PMC7531004, “Discovery of gramicidin A analogues with altered activities by multidimensional screening of a one-bead-one-compound library” (Nature Communications, 2020).

For data set [1] the following is noted: cell viability/%. The essentials:
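P388 cells at 1 × 10^4 cells/mL (final) were exposed to library peptides (stocks diluted 250-fold in RPMI1640/10% FBS) for 92 h at 37 °C, 5% CO2. Viable cells were counted by WST-1/1-methoxy PMS (4 h), absorbance 415 nm, and expressed as cell viability (%).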

Data set [2] can be described thus: H+/Na+ transport assay of bead-derived peptides (one-point).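 Note: relative to parent gramicidin A activity set to 1.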 The conditions noted are these: bead-derived peptide solution, EYPC/EYPG LUVs. Set-up: key: relative activity; mean of two control wells = 1.00. The data set is classed as biochemical. In short, it runs like this:
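One-point screen: peptide + pyranine-loaded LUVs, 30 min RT with vortexing, 96-well. Read-out is fluorescence intensity scaled as 100 × (Ix – I0)/(Imax – I0). Imax from Triton X-100, I0 from untreated vesicles, and the mean of the two control wells is set to 1.00.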

Data set [3] concerns Streptococcus pyogenes SSI-9. Kind of data set: Antibacterial activity assay of bead-derived peptides (three concentrations). Format: cell-based. The conditions noted are these: S. pyogenes, bead-derived peptide solution, three concentrations. Set-up: key: +++: inhibition by the 640-fold diluted peptide solution; ++: inhibition by the 160-fold diluted solution; +: inhibition by the 40-fold diluted solution; -: no inhibition. In short, it runs like this:
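Undiluted, 4-fold and 16-fold DMSO-diluted peptide stocks; S. pyogenes SSI-9, 2 × 10^5 CFU, cation-adjusted MHB (50 mg/L Ca2+, 25 mg/L Mg2+) + 5% laked horse blood; 37 °C, 18 h; readout = cell pellet visible or not.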

Where a SMILES comes first, the peptide text is derived from it. [ ]: non-standard residue; d: D form. The star is where a group is joined. NHCH2CH2OH = OCCN*; For = O=C*

Usually viability stands for the share of living cells, or the viability signal relative to a control.

Regarding `CC(C)C[C@@H](NC(=O)[C@H](C)NC(=O)[C@H](NC(=O)[C@H](C)NC(=O)CNC(=O)[C@@H](NC=O)C(C)C)C(C)C)C(=O)N[C@H](C(=O)N[C@@H](C(=O)N[C@@H](Cc1c[nH]c2ccccc12)C(=O)N[C@H](CC(C)C)C(=O)N[C@@H](Cc1c[nH]c2ccccc12)C(=O)N[C@@H](C(=O)N[C@@H](Cc1c[nH]c2ccccc12)C(=O)N[C@@H](C(=O)N[C@@H](Cc1c[nH]c2ccccc12)C(=O)NCCO)[C@H](C)O)[C@H](C)O)C(C)C)C(C)C` [compound 13040] (For-VGA[dV]A[dL]V[dV]W[dL]W[dT]W[dT]W-NHCH2CH2OH), in data set [1], the viability is 100%. In addition, in data set [2], the “H+/Na+ transport activity normalized against the value of 1 (1.00)” value (shortened to “H+/Na+ transport activity normalized”) is recorded as 1.01. In addition, the antibacterial activity result in data set [3] was “-”.
Compound `CNC(=O)C[C@@H](NC(=O)[C@H](C)NC(=O)[C@H](NC(=O)[C@H](C)NC(=O)CNC(=O)[C@@H](NC=O)C(C)C)C(C)C)C(=O)N[C@H](C(=O)N[C@H](CC(C)C)C(=O)N[C@@H](Cc1c[nH]c2ccccc12)C(=O)N[C@@H](C(=O)N[C@@H](Cc1c[nH]c2ccccc12)C(=O)N[C@@H](C(=O)N[C@@H](Cc1c[nH]c2ccccc12)C(=O)N[C@@H](C(=O)N[C@@H](Cc1c[nH]c2ccccc12)C(=O)NCCO)C(C)C)C(C)C)C(C)C)C(C)C` [compound 13148] (For-VGA[dV]A[dD](NHMe)V[dL]W[dV]W[dV]W[dV]W-NHCH2CH2OH) showed a viability in data set [1] of 93.6%. Moreover, the “H+/Na+ transport activity normalized” value in data set [2] worked out at 1.03. In addition, the antibacterial activity result in data set [3] is reported as “-”.
The matching figures for `CC(C)C[C@@H](NC(=O)[C@H](Cc1c[nH]c2ccccc12)NC(=O)[C@@H](CC(C)C)NC(=O)[C@H](Cc1c[nH]c2ccccc12)NC(=O)[C@@H](CC(C)C)NC(=O)[C@H](Cc1c[nH]c2ccccc12)NC(=O)[C@H](NC(=O)[C@@H](NC(=O)[C@H](NC(=O)[C@H](C)NC(=O)[C@H](NC(=O)[C@H](C)NC(=O)CNC(=O)[C@@H](NC=O)C(C)C)C(C)C)[C@H](C)O)C(C)C)C(C)C)C(=O)N[C@@H](Cc1c[nH]c2ccccc12)C(=O)NCCO` [compound 13151] (For-VGA[dV]A[dT]V[dV]W[dL]W[dL]W[dL]W-NHCH2CH2OH): 100%, 1.01 and “-”.
`CC(C)C[C@@H](NC(=O)[C@H](Cc1c[nH]c2ccccc12)NC(=O)[C@H](NC(=O)[C@H](Cc1c[nH]c2ccccc12)NC(=O)[C@@H](CC(C)C)NC(=O)[C@@H](NC(=O)[C@H](NC(=O)[C@H](C)NC(=O)[C@H](NC(=O)[C@H](C)NC(=O)CNC(=O)[C@@H](NC=O)C(C)C)[C@H](C)O)C(C)C)C(C)C)[C@H](C)O)C(=O)N[C@@H](Cc1c[nH]c2ccccc12)C(=O)N[C@@H](C(=O)N[C@@H](Cc1c[nH]c2ccccc12)C(=O)NCCO)C(C)C` [compound 13245] (For-VGA[dT]A[dV]V[dL]W[dT]W[dL]W[dV]W-NHCH2CH2OH): the viability in data set [1] turned out to be 100%. For the same compound, the “H+/Na+ transport activity normalized” value in data set [2] worked out at 1.07. Moreover, the antibacterial activity result in data set [3] is “-”.
